The values below come from ChEMBL document CHEMBL5726468, “Heterocyclic compounds and methods of use thereof” (2019).

This experiment is described as follows: Huh 7.5.1 ATPlite assay : This example demonstrates the EC50 and CC50 values against HCV according to the HCVcc-RLuc reporter assay described in Example 5 and the cytotoxicity using the Huh 7.5.1 ATPlite assay for compounds in accordance with an embodiment of the invention. In general terms: In ATP-based viability assays light output follows the ATP content of the culture.

pEC50: −log10 of the molar value. “And” between values parts separate entries of the source, which are not always exact repeats. Equal entries are not always repeated.

Usually pEC50 stands for the EC50 on a negative log10 scale, so that one unit is a factor of ten.

As to `Cc1cc(-c2nc(CN3CCC(C(=O)NCCCN4C[C@H](C)C[C@H](C)C4)CC3)co2)ccc1F`, the pEC50 (Huh-7.5.1) was 7.42. For the molecule `Cc1ccccc1-c1nc(CN2CCC(C(=O)NCCCN3C[C@H](C)C[C@H](C)C3)CC2)c(C)s1`, for the setting “Huh-7.5.1”, the pEC50 was 7.42. In the case of `CCN(CC)CCCCNC(=O)C1CCN(CC2N=C(c3cc(OC)cc(OC)c3)OC2C)CC1` (stereo not drawn), the pEC50 (Huh-7.5.1) is 5.18. In turn, `COc1cccc(F)c1C1=NC(CN2CCC(C(=O)NCCCN3C[C@H](C)C[C@H](C)C3)CC2)C(C)O1` (stereo partly drawn) had a pEC50 (Huh-7.5.1) of 6.34. On the same count and under the same terms, then `Cc1cccc(Cl)c1C1=NC(CN2CCC(C(=O)NCCCN3C[C@H](C)C[C@H](C)C3)CC2)C(C)O1` (stereo partly drawn), with 7.85; and `Cc1ccc(C2=NC(CN3CCC(C(=O)NCCCN4C[C@H](C)C[C@H](C)C4)CC3)C(C)O2)cc1` (stereo partly drawn), with 7.00. Regarding `CC1OC(c2c(Cl)cccc2Br)=NC1CN1CCC(C(=O)NCCCN2C[C@H](C)C[C@H](C)C2)CC1` (stereo partly drawn), the pEC50 is 6.75 and 6.41. `CC1OC(c2ccc(Cl)c(Cl)c2)=NC1CN1CCC(C(=O)NCCCN2C[C@H](C)C[C@H](C)C2)CC1` (stereo partly drawn) gave a pEC50 (Huh-7.5.1) of 7.89. As to `CC1OC(c2c(Cl)cccc2Cl)=NC1CN1CCC(C(=O)NCCCN2C[C@H](C)C[C@H](C)C2)CC1` (stereo partly drawn), the pEC50 (Huh-7.5.1) was 6.66.

For the setting “Huh-7.5.1”, `CC1OC(c2ccc(Cl)cc2)=NC1CN1CCC(C(=O)NCCCN2C[C@H](C)C[C@H](C)C2)CC1` (stereo partly drawn) showed a negative-log EC50 (pEC50) of 6.96. Compared with the last molecule, the pEC50 is 0.30 log units higher. Same read-out and setting: then `Cc1ccccc1C1=NC(CN2CCC(C(=O)NCCCN3CCC(C)CC3)CC2)C(C)O1` (stereo not drawn), with 6.40. On the same count and under the same terms, then `CC1OC(c2c(F)cccc2F)=NC1CN1CCC(C(=O)NCCCN2C[C@H](C)C[C@H](C)C2)CC1` (stereo partly drawn), with 6.20. Still for that read-out and setting: then `Cc1cc(C)c(C2=NC(CN3CCC(C(=O)NCCCN4C[C@H](C)C[C@H](C)C4)CC3)C(C)O2)c(C)c1` (stereo partly drawn), with 6.72; and `CC1OC(c2ccc(F)cc2)=NC1CN1CCC(C(=O)NCCCN2C[C@H](C)C[C@H](C)C2)CC1` (stereo partly drawn), with 7.28.

In turn, `C[C@@H]1C[C@H](C)CN(CCCNC(=O)C2CCN(Cc3oc(-c4cc(C(F)(F)F)cc(C(F)(F)F)c4)nc3C(F)(F)F)CC2)C1` showed a pEC50 (Huh-7.5.1) of 6.82. Still for that read-out and setting: as for `CCc1ccccc1C1=NC(CN2CCC(C(=O)NCCCN3C[C@H](C)C[C@H](C)C3)CC2)C(C)O1` (stereo partly drawn), the figure is 6.85; as for `Cc1ccccc1-c1nc(CN2CCC[C@@H](C(=O)NCCCN3C[C@H](C)C[C@H](C)C3)C2)c(C)o1`, 6.52; as for `CC1CCCN(CCCNC(=O)C2CCN(Cc3oc(-c4cc(C(F)(F)F)cc(C(F)(F)F)c4)nc3C(F)(F)F)CC2)C1` (stereo not drawn), 6.47. With `CC1OC(c2c(F)cccc2Cl)=NC1CN1CCC(C(=O)NCCCN2C[C@H](C)C[C@H](C)C2)CC1` (stereo partly drawn), where the note is “Huh-7.5.1”, the pEC50 was 6.48. In the case of `Cc1cc(C)cc(C2=NC(CN3CCC(C(=O)NCCCN4C[C@H](C)C[C@H](C)C4)CC3)C(C)O2)c1` (stereo partly drawn), the pEC50 (Huh-7.5.1) was 7.44. This pEC50 is 0.96 log units higher than that of the molecule before. Still for that read-out and setting: then `COc1cccc(Br)c1C1=NC(CN2CCC(C(=O)NCCCN3C[C@H](C)C[C@H](C)C3)CC2)C(C)O1` (stereo partly drawn), with 6.67; and `CC1OC(c2ccccc2Cl)=NC1CN1CCC(C(=O)NCCCN2C[C@H](C)C[C@H](C)C2)CC1` (stereo partly drawn), with 7.07. The same measure, in the same setting: as for `Cc1ccccc1C1=NC(CN2CCC(C(=O)NCCN3CCCCC3)CC2)C(C)O1` (stereo not drawn), the figure is 5.92. On the same count and under the same terms, as for `Cc1ccccc1C1=NC(CN2CCC(C(=O)N3CCN(CCN(C)C)CC3)CC2)C(C)O1` (stereo not drawn), the figure is 5.21; as for `Cc1cccc(Cl)c1C1=NC(CN2CCC(C(=O)NCCCN3CCC(C)(C)CC3)CC2)C(C)O1` (stereo not drawn), 6.66; as for `Cc1ccc(C2=NC(CN3CCC(C(=O)NCCCN4C[C@H](C)C[C@H](C)C4)CC3)C(C)O2)cc1C` (stereo partly drawn), 7.01.

Where the note is “Huh-7.5.1”, `COc1cc(OC)cc(C2=NC(CN3CCC(C(=O)NCCCN4CC(C)CC(C)C4)CC3)C(C)O2)c1` (stereo not drawn) showed a pEC50 of 6.17. Against the preceding molecule, the pEC50 is 0.84 log units lower. Consider `Cc1ccccc1-c1nc(CC2CCC[C@@H](C(=O)CCCCN3C[C@H](C)C[C@H](C)C3)C2)c(C)o1` (stereo partly drawn), for which the pEC50 (Huh-7.5.1) is 6.39.
